Results published in patent US20050154060A1, “Anti-inflamatory inhalation pharmaceutical composition” (Galephar Pharmaceutical Research, Inc., priority 2003, published 2005).

Key:
interleukine 6 (IL-6) = assay: Sputum IL-6 in 12-week placebo controlled study of NAL DPI in COPD patients; assay type: in vivo, human (COPD patients); details: for concentration in IL-6 decreased by: sputum, after 12 weeks of treatment
Procedure: (§1) A new clinical trial has been performed with a dry powder inhaler (DPI) formulation of NAL in moderate to severely ill COPD patients. The study was performed with two doses of NAL DPI: 20 mg twice a day and 40 mg twice a day versus placebo.
(§2) The complete title of the study was “A 12-week, multicentre, randomised, double-blind, placebo controlled, pilot study of the safety and efficacy of Nacystelyn (20 mg b.i.d. and 40 mg b.i.d.) in patients with chronic obstructive pulmonary disease (COPD).”
(§3) NAL pulmonary administration was performed using a Dry Powder Inhaler consisting of a capsule containing NAL and a carrier, and of an inhalation device.
(§4) During the same study, sputum of COPD patients was collected at baseline (T0), after 4 weeks (w4) and after 12 weeks of treatment (T12).
(§5) The purpose of collecting sputum was to assess if NAL DPI administration could affect (increase or decrease) lung inflammation parameters in such patients. Lung inflammation may be reflected by the sputum concentration of some pro-inflammatory markers, called cytokines, such as interleukine 6 (IL-6) and interleukine 8 (IL-8) or anti-inflammatory markers, such as interleukine 10 (IL-10).
(§6) After collection of the mucus, the said mucus was centrifugated and the cytokines IL-8 and IL-6 were quantified using a validated analytical method. It should be noted that only subjects presenting a quantifiable value of cytokines at the time considered were taken into account.

interleukine 8 (IL-8) = assay: Sputum IL-8 in 12-week placebo controlled study of NAL DPI in COPD patients; assay type: in vivo, human (COPD patients)
Procedure: as §1, §2, §3, §4, §5, §6

[1] = sputum of COPD patients, NAL DPI 20 mg twice a day, week 4
[2] = sputum of COPD patients, NAL DPI 20 mg twice a day, week 12
[3] = sputum of COPD patients, NAL DPI 40 mg twice a day, week 4
[4] = sputum of COPD patients, NAL DPI 40 mg twice a day, week 12

With `CC(=O)N[C@@H](CS)C(=O)O.NCCCC[C@H](N)C(=O)O` [NAL, L-Lysine-N-Acetylcysteinate] the “effect on IL-6 in sputum (in words)” value (interleukine 6 (IL-6); sputum of COPD patients, 20 mg and 40 mg twice a day) was “decrease of IL-6 in the sputum of COPD patients in a dose related manner”, the “change in inflammatory marker IL-6, percent change versus baseline” value (interleukine 6 (IL-6); [1]) was 24% and the “change in inflammatory marker IL-6, percent change versus baseline” value (interleukine 6 (IL-6); [2]) was −17%. For the same compound, the “change in inflammatory marker IL-6, percent change versus baseline” value (interleukine 6 (IL-6); [3]) was 70%, the “change in inflammatory marker IL-6, percent change versus baseline” value (interleukine 6 (IL-6); [4]) was −42% and the “concentration in IL-6 decreased by” value (interleukine 6 (IL-6); NAL 20 mg) was 17%. The “concentration in IL-6 decreased by” value (interleukine 6 (IL-6); NAL 40 mg) was 42%, the “effect on IL-8 levels in sputum (in words)” value (interleukine 8 (IL-8); sputum of COPD patients) was “significantly decrease the IL-8 levels in the sputum” and the “change in inflammatory marker IL-8, percent change versus baseline” value (interleukine 8 (IL-8); [1]) was −13%. For the same compound, the “change in inflammatory marker IL-8, percent change versus baseline” value (interleukine 8 (IL-8); [2]) was −17%, the “change in inflammatory marker IL-8, percent change versus baseline” value (interleukine 8 (IL-8); [3]) was −2% and the “change in inflammatory marker IL-8, percent change versus baseline” value (interleukine 8 (IL-8); [4]) was “+3%”. For the same compound, the “levels of IL-8 decreased by” value (interleukine 8 (IL-8); sputum, after 12 weeks of treatment, NAL 20 mg) was 17% and the “levels of IL-8 increased by” value (interleukine 8 (IL-8); sputum, after 12 weeks of treatment, NAL 40 mg) was 3%.
